Test results as given in US20220072101A1, “HARNESSING INFLAMMATION TO TREAT NEURODEVELOPMENTAL DISORDERS” (President and Fellows of Harvard College, priority 2019, published 2022).

Assays:
Format in all cases: in vivo, mouse
[1] = test system: layer 2/3 pyramidal neurons in S1DZ; assay: Whole-cell patch clamp recordings in brain slices of Veh- or LPS-injected MIA offspring; conditions: S1DZ pyramidal neurons from LPS-injected MIA offspring
MIA offspring = assay: Reciprocal social interaction assay; conditions: four hours after LPS
Experimental: Four hours prior to testing, mice were injected with vehicle or LPS. Two unfamiliar mice of the same treatment and background were placed in a fresh mouse cage and allowed to freely interact for 10 min. Videos were acquired using IC Capture (The Imaging Source®) at 640×480 aspect ratio and 25 fps. Social interaction (close following, push-crawl, nose-nose sniffing, and nose-anus sniffing) was scored by an observer blind to treatment and background^27.

BBB = BBB permeability (Evans blue)
Experimental: BBB permeability was assessed with Evans blue (Sigma Aldrich®). The Evans blue dye binds to serum albumin (69,000 Da) to become a high-molecular-weight protein tracer. Mice were injected with 100 μl of Evans blue solution (10 mg/kg in PBS) intravenously. After 30 min, all injected mice were sacrificed. Whole brains were then removed and photographed. The brain tissues were disrupted in lysis buffer at full speed for 60 seconds using a Micro-Homogenizer (VWR International®). The fluorescence was determined using a Spectrophotometer (BioTek Instruments®) with excitation at 620 nm and emission at 680 nm.

Q: Which results are given for lipopolysaccharide [LPS]?
A: spiking in response to depolarizing current injections [1]: reduced spiking in response to depolarizing current injections; reciprocal social interaction (MIA offspring): rescue of MIA sociability deficits was also evident; BBB permeability (leakage of i.v. Evans Blue into the brain) (BBB; MIA offspring, LPS 3.5 hr before Evans Blue): can increase BBB permeability; LPS-induced increase in EB leakage in knockout animals (BBB; animals genetically deficient for IFNγ or IL-17a): prevented in animals genetically deficient for IFNγ, but not IL-17a
